Legend:
LNcap FGC cells = experiment: Inhibition of proliferation of LNcap FGC cells (Cell Titer Glo, 6 days); format: cell-based; settings: Homo sapiens, LNCaP, 144 h
Protocol: Tumor cell line LNcap FGC (ATCC catalog number CRL-1740) was cultured in RPMI 1640 (Gibco catalog number 11875-093) and DMEM (Gibco catalog number. 11965-092) medium containing 10% FBS (Gibco catalog number 10099-141C), respectively.
LNcap FGC cells were inoculated in a 384-well plate (Perkin Elmer catalog number 6007460) at a cell density of 400 cells/well in a volume of 20 μL/well and incubated overnight in a carbon dioxide incubator (Thermo). The prepared compound solutions of different concentrations were added in a volume of 5 μL/well. The corresponding vehicle control was set at the same time. After being cultured in the incubator for 6 days, the cell plate and the contents were equilibrated to room temperature, and 25 μL of Cell Titer Glor (Promega catalog number G7573) was added to each well, shook and mixed well, incubated in dark for 10-30 minutes, and the signal values were detected with Envision microplate reader (PerkinElmer).
The percentage inhibition rate of compound-treated wells was calculated from the vehicle control wells on the plate, and the percentage inhibition rate data corresponding to different concentrations were fitted by GraphPad prism, and the IC50 values were calculated by 4-parameter nonlinear logic formula.

androgen receptor = molecular target: T1, androgen receptor (Homo sapiens, UniProt P10275); experiment: In-Cell-Western determination of androgen receptor degradation in VCaP cells; format: cell-based; settings: 24 hours treatment; for DC50: concentration for half of the maximal degradation of AR in VCaP cells; for Dmax: maximum degradation of AR in VCaP cells
T1 construct: endogenous in cells; host or cells: VCaP cells
T1 sequence (P10275 1-920): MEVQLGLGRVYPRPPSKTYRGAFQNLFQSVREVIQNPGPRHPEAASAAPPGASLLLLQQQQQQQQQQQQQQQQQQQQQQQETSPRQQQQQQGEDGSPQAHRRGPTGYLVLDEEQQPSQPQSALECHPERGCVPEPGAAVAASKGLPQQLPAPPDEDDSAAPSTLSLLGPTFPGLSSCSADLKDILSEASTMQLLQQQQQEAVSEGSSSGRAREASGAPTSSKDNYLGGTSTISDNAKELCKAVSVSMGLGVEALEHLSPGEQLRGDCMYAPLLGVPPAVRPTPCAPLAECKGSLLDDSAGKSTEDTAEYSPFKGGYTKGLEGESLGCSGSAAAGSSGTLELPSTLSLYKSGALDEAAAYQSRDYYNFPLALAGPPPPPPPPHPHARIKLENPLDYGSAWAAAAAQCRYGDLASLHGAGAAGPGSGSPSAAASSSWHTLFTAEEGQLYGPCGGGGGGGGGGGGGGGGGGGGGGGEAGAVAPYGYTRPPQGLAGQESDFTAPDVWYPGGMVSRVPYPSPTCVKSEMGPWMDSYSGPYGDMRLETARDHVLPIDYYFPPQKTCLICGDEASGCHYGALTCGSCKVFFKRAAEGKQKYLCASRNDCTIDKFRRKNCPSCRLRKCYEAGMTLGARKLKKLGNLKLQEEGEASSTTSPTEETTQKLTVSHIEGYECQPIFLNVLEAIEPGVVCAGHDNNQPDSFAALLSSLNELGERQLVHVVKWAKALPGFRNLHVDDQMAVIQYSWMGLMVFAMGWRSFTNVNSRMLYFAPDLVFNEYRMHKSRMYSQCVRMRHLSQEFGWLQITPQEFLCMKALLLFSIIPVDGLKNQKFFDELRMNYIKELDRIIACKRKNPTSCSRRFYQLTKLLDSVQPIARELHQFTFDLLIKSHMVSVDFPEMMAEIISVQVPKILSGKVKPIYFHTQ
Protocol: The determination evaluated the properties of the compounds in Vcap cells. Intracellular androgen receptor was determined by In-Cell-Western according to the determination steps described below.
In poly-D-Lysin pretreated 96-well cell culture plate (Corning 3599), Vcap cells were divided into […] volume, and inoculated with 50,000 cells/well in Vcap cell assay medium [DMEM containing phenol red (Gibco catalog number: 11995065); fetal bovine serum FBS (Gibco catalog number: 10099141C)]. Cells were cultured for at least two days.
1. First treated cells with compound. Compounds were gradient diluted with DMSO and cell culture medium, so that DMSO contained in cell culture plates was diluted to 0.5% —polypropylene plates were used according to the following protocol:
(1)(i) 200× stock plate in DMSO was prepared; (ii) 10 mM stock solution was diluted 1:4 with DMSO (10 μL stock solution+40 μL DMSO)=2000 μM, then entered into row 2; (iii) 1:4 (10 μL protac+40 μL DMSO) gradient dilution was performed in row 2 to row 9, and row 1 was reserved for 2000 μM reference compound and row 10 for DMSO. (iv) A total of 8 concentrations (final concentrations on the 200×plate were 2000 μM, 400 μM, 80 μM, etc.). (i) 3×stock solution in medium was prepared; (ii) 3 μL of 200× stock solution was transferred to 197 μL of culture medium (using 12-channel pipette, from line 1 to line 10), i.e. 3× stock solution plate. (iii) The stock solution plate was mixed evenly. (3) (i) The culture medium of Vcap cells was replaced with fresh culture medium, 100 μL volume culture medium. (ii) The well-mixed 3×stock solution was transferred to the cell culture plate (using 12-channel pipette, and 50 μL of stock solution was transferred from line 1 to line 10). (iii) Cells were cultured for 24 hours.
2. The expression level of intracellular androgen receptor after compound treatment was […] and determined according to the following method.
(1)(i) Equal volume of 8% paraformaldehyde was added to the cell culture plate for cell fixation. The fixing solution in the cell plate was discarded and washed three times with PBS. (ii) Triton solution (1:1000 dilution of the stock solution) was prepared. The solution in the cell plate was discarded, and 200 μL of Triton diluent was added into each well. (iii) 2×blocking solution (1:4 dilution of 10×blocking stock solution) was prepared. The solution in the cell plate was discarded, and 100 μL of 2×blocking solution was added into each well. (iv) Primary antibody solution (Androgen receptor Rabbbit mAb, Cell Signaling Technology catalog number: 5153; 1:1000 dilution) was prepared. The solution in the cell plate was discarded, 100 μL volume of primary antibody diluent was added to each well, and incubated at 4° C. overnight. (v) The primary antibody solution was discarded and the cell plate was washed with 1×Wash buffer. (vi) Secondary antibody solution (GOAT Antirabbit IgG (H+L), HRP, Thermo catalog number: 31460; 1:5000 dilution) was prepared, and 100 μL volume of secondary antibody dilution was added to each well for incubation. (vii) The secondary antibody solution in the cell plate was discarded and the cell plate was washed with 1× Wash buffer. (viii) TMB chromogenic solution (BD catalog number: 550534) was prepared, and 100 μL chromogenic solution was added into each well. (ix) 50 μL volume of stop solution (BD catalog number: 550534) was added to each well. (x) The absorption values at OD 450 nm and 570 nm were read though EnVision. (2)(i) Normalized analysis was performed on the number of cells in each well. The solution in the cell plate was discarded, and washed with wash buffer for three times. (ii) Janus dilution (1:3 dilution) was prepared. (iii) 50 μL volume diluent was added to each well for incubation. (iv) The solution in the plate was discarded and washed with deionized water. […]

## CC1(C)C(=O)N(c2ccc(C#N)c(Cl)c2)c2ccc(-c3ccc(N4CC(CN5CCN(c6ccc7c(c6)C(=O)N(C6CCC(=O)NC6=O)C7=O)CC5)C4)cc3)cc21 (stereo not drawn) [Compound 1]
LNcap FGC cells
  Emax: 91%
  IC50: 66.1 nM
Androgen receptor
  DC50: 35 nM
  Dmax: 68%

## CC1(C)C(=O)N(c2ccc(C#N)c(C(F)(F)F)c2)c2ccc(-c3ccc(N4CC(CN5CCN(c6ccc7c(c6)C(=O)N(C6CCC(=O)NC6=O)C7=O)CC5)C4)cc3)cc21 (stereo not drawn) [Compound 3]
LNcap FGC cells
  Emax: 93%
  IC50: 54.8 nM
Androgen receptor
  DC50: 76 nM
  Dmax: 60%

## CC1(C)C(=O)N(c2ccc(C#N)c(Cl)c2)c2ccc(-c3ccc(N4CC(CN5CCN(c6ccc7c(c6)C(=O)N(C6CCC(=O)NC6=O)C7=O)CC5)C4)nc3F)cc21 (stereo not drawn) [Compound 14]
LNcap FGC cells
  Emax: 100%
  IC50: 60.6 nM
Androgen receptor
  DC50: 94 nM
  Dmax: 85%

From patent US12441706B2, “Protein degradation agent compound preparation method and application” (SHANGHAI JEMINCARE PHARMACEUTICALS CO., LTD., priority 2019, dated 2025)
